Assay results from PubChem BioAssay (NCI).
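Tested at 5 concentrations; 48 h exposure; 96-well plates; endpoints linearly interpolated, else capped at highest concentration. GI50 = concentration required for 50% inhibition of growth. At the TGI there is no net growth.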

Assays:
Assay in all cases: inhibition of tumour cell growth, NCI panel, 48 h; in the data active = GI50 below about 0.43 µM; inactive = the rest
MDA-MB-231 breast = test system: MDA-MB-231 breast
NCI-H460 lung = test system: NCI-H460 lung
SF-268 CNS = test system: SF-268 CNS
CCRF-CEM leukemia = test system: CCRF-CEM leukemia
HT29 colon = test system: HT29 colon
M14 melanoma = test system: M14 melanoma
BT-549 breast = test system: BT-549 breast
HOP-62 NSCLC = test system: HOP-62 NSCLC
KM12 colon = test system: KM12 colon
NCI-H226 lung = test system: NCI-H226 lung
CAKI-1 renal = test system: CAKI-1 renal
HS 578T breast = test system: HS 578T breast
UACC-257 melanoma = test system: UACC-257 melanoma
OVCAR-4 ovarian = test system: OVCAR-4 ovarian
OVCAR-8 ovarian = test system: OVCAR-8 ovarian
MOLT-4 leukemia = test system: MOLT-4 leukemia
UO-31 renal = test system: UO-31 renal
SK-MEL-2 melanoma = test system: SK-MEL-2 melanoma
SK-MEL-5 melanoma = test system: SK-MEL-5 melanoma
HCC-2998 colon = test system: HCC-2998 colon
DU-145 prostate = test system: DU-145 prostate
HCT-15 colon = test system: HCT-15 colon
SF-539 CNS = test system: SF-539 CNS
NCI-H522 lung = test system: NCI-H522 lung
MALME-3M melanoma = test system: MALME-3M melanoma
SR leukemia = test system: SR leukemia
OVCAR-5 ovarian = test system: OVCAR-5 ovarian
NCI/ADR-RES ovarian = test system: NCI/ADR-RES ovarian
OVCAR-3 ovarian = test system: OVCAR-3 ovarian
A498 renal = test system: A498 renal
RPMI-8226 leukemia = test system: RPMI-8226 leukemia
SN12C renal = test system: SN12C renal
HL-60(TB) leukemia = test system: HL-60(TB) leukemia
T-47D breast = test system: T-47D breast
ACHN renal = test system: ACHN renal
SW-620 colon = test system: SW-620 colon
MDA-MB-435 = test system: MDA-MB-435
SK-OV-3 ovarian = test system: SK-OV-3 ovarian
HOP-92 NSCLC = test system: HOP-92 NSCLC
MCF7 breast = test system: MCF7 breast
SNB-75 CNS = test system: SNB-75 CNS
RXF 393 renal = test system: RXF 393 renal
SNB-19 CNS = test system: SNB-19 CNS
TK-10 renal = test system: TK-10 renal
786-0 renal = test system: 786-0 renal
IGROV1 ovarian = test system: IGROV1 ovarian
K-562 leukemia = test system: K-562 leukemia
PC-3 prostate = test system: PC-3 prostate
U251 CNS = test system: U251 CNS
SF-295 CNS = test system: SF-295 CNS
LOX IMVI melanoma = test system: LOX IMVI melanoma
SK-MEL-28 melanoma = test system: SK-MEL-28 melanoma
UACC-62 melanoma = test system: UACC-62 melanoma
COLO 205 colon = test system: COLO 205 colon
A549 NSCLC = test system: A549 NSCLC
NCI-H23 lung = test system: NCI-H23 lung
HCT-116 colon = test system: HCT-116 colon

Nc1c(C(=O)c2cccc(-c3ccncc3)c2)cnn1-c1ccc(F)cc1
inactive: GI50 (MDA-MB-231 breast) > 25 µM | GI50 (NCI-H460 lung) > 25 µM | GI50 (SF-268 CNS) > 25 µM | GI50 (CCRF-CEM leukemia) > 25 µM | GI50 (HT29 colon) > 25 µM | GI50 (M14 melanoma) > 25 µM | GI50 (BT-549 breast) > 25 µM | GI50 (HOP-62 NSCLC) > 23.3 µM | GI50 (KM12 colon) > 25 µM | GI50 (NCI-H226 lung) > 25 µM | GI50 (CAKI-1 renal) > 25 µM | GI50 (HS 578T breast) > 25 µM | GI50 (UACC-257 melanoma) > 25 µM | GI50 (OVCAR-4 ovarian) > 25 µM | GI50 (OVCAR-8 ovarian) > 25 µM | GI50 (MOLT-4 leukemia) > 25 µM | GI50 (UO-31 renal) > 25 µM | GI50 (SK-MEL-2 melanoma) > 25 µM | GI50 (SK-MEL-5 melanoma) 5.69 µM | GI50 (HCC-2998 colon) > 25 µM | GI50 (DU-145 prostate) > 25 µM | GI50 (HCT-15 colon) > 25 µM | GI50 (SF-539 CNS) > 25 µM | GI50 (NCI-H522 lung) 15.4 µM | GI50 (MALME-3M melanoma) > 25 µM | GI50 (SR leukemia) > 25 µM | GI50 (OVCAR-5 ovarian) > 25 µM | GI50 (NCI/ADR-RES ovarian) > 25 µM | GI50 (OVCAR-3 ovarian) > 25 µM | GI50 (A498 renal) > 25 µM | GI50 (RPMI-8226 leukemia) > 15.2 µM | GI50 (SN12C renal) > 25 µM | GI50 (HL-60(TB) leukemia) > 5.67 µM | GI50 (T-47D breast) 9.94 µM | GI50 (ACHN renal) > 25 µM | GI50 (SW-620 colon) > 25 µM | GI50 (MDA-MB-435) > 25 µM | GI50 (SK-OV-3 ovarian) > 25 µM | GI50 (HOP-92 NSCLC) > 25 µM | GI50 (MCF7 breast) > 25 µM | GI50 (SNB-75 CNS) > 25 µM | GI50 (RXF 393 renal) > 25 µM | GI50 (SNB-19 CNS) > 25 µM | GI50 (TK-10 renal) > 25 µM | GI50 (786-0 renal) > 25 µM | GI50 (IGROV1 ovarian) > 25 µM | GI50 (K-562 leukemia) > 25 µM | GI50 (PC-3 prostate) > 25 µM | GI50 (U251 CNS) > 25 µM | GI50 (SF-295 CNS) > 25 µM | GI50 (LOX IMVI melanoma) > 25 µM | GI50 (SK-MEL-28 melanoma) > 25 µM | GI50 (UACC-62 melanoma) > 25 µM | GI50 (COLO 205 colon) > 25 µM | GI50 (A549 NSCLC) > 25 µM | GI50 (NCI-H23 lung) > 25 µM | GI50 (HCT-116 colon) > 25 µM
> 25 µM: TGI (MDA-MB-231 breast) | TGI (NCI-H460 lung) | TGI (SF-268 CNS) | TGI (CCRF-CEM leukemia) | TGI (HT29 colon) | TGI (M14 melanoma) | TGI (BT-549 breast) | TGI (HOP-62 NSCLC) | TGI (KM12 colon) | TGI (NCI-H226 lung) | TGI (CAKI-1 renal) | TGI (HS 578T breast) | TGI (UACC-257 melanoma) | TGI (OVCAR-4 ovarian) | TGI (OVCAR-8 ovarian) | TGI (MOLT-4 leukemia) | TGI (UO-31 renal) | TGI (SK-MEL-2 melanoma) | TGI (SK-MEL-5 melanoma) | TGI (HCC-2998 colon) | TGI (DU-145 prostate) | TGI (HCT-15 colon) | TGI (SF-539 CNS) | TGI (NCI-H522 lung) | TGI (MALME-3M melanoma) | TGI (SR leukemia) | TGI (OVCAR-5 ovarian) | TGI (NCI/ADR-RES ovarian) | TGI (OVCAR-3 ovarian) | TGI (A498 renal) | TGI (RPMI-8226 leukemia) | TGI (SN12C renal) | TGI (HL-60(TB) leukemia) | TGI (T-47D breast) | TGI (ACHN renal) | TGI (SW-620 colon) | TGI (MDA-MB-435) | TGI (SK-OV-3 ovarian) | TGI (HOP-92 NSCLC) | TGI (MCF7 breast) | TGI (SNB-75 CNS) | TGI (RXF 393 renal) | TGI (SNB-19 CNS) | TGI (TK-10 renal) | TGI (786-0 renal) | TGI (IGROV1 ovarian) | TGI (K-562 leukemia) | TGI (PC-3 prostate) | TGI (U251 CNS) | TGI (SF-295 CNS) | TGI (LOX IMVI melanoma) | TGI (SK-MEL-28 melanoma) | TGI (UACC-62 melanoma) | TGI (COLO 205 colon) | TGI (A549 NSCLC) | TGI (NCI-H23 lung) | TGI (HCT-116 colon)
